Measurements: patent US5605928A, “Antiemetic compositions” (Yissum Research Development Company of The Hebrew …, priority 1992, dated 1997)
“Also recorded” adds a separate entry of the source. Read-outs that look alike come from different tables or passages of the source.

Columns and labels:
[1] = Acute oral toxicity, single doses, observed for 7 days; format: in vivo; details: rat, in vivo; Fischer rats, male, single oral dose, observed 7 days; read-out: LD50, males
Fischer rats = experiment: as above; format: in vivo; details: extremely high oral doses, delta-8- vs delta-9-THC
[2] = Acute oral toxicity, single doses; format: in vivo; details: in vivo, single oral dose, read-out: LD50 (could not be determined; single oral doses up to this dose non lethal)
Method: (§1) LD50 could not be determined in either rhesus monkeys or dogs as single oral doses of up to 9000 mg/kg of either delta-8- or delta-9-THC in dogs or monkeys were non lethal.

dogs = experiment: Acute oral toxicity, single doses; format: in vivo; details: single oral doses up to 9000 mg/kg
Method: as §1

rhesus monkeys = experiment: Acute oral toxicity, single doses; format: in vivo; details: single oral doses up to 9000 mg/kg
Method: as §1

[3] = test system: vomiting and nausea in chemotherapy patients; details: cited from earlier work
[4] = test system: vomiting due to antineoplastic therapy; experiment: Previous antiemetic treatment of patient 1 with Metoclopromide; format: in vivo, human; details: patient 1, 0.3 mg/kg p.o. or i.v.
[5] = test system: vomiting due to antineoplastic therapy in children with various blood cancers; experiment: Antiemetic trial of delta-8-THC in 8 children receiving antineoplastic therapy (prevention of vomiting, side effects); format: in vivo, human (children)
Method: In a trial, with 8 children of 3 to 13 years age, with various blood cancers, treated with a variety of antineoplastic drugs, 18 mg/m^2, in edible oil, p.o. of delta-8-THC was given two hours before the antineoplastic drug, and repeated every 6 hours of 24 hours. […] So far these children have received Δ^8 -THC nearly 500 times (see Table).
Eight children with various blood cancers were administered delta-8-THC at a dose of 18 mg/m^2 p.o. two hours before the start of the anticancer treatment. The drug was dissolved in corn or olive oil (6 mg/ml). The same dose was repeated every 6 hrs for 24 hrs. Whenever additional cycles of antineoplastic therapy were required, delta-8-THC was administered following the same time procedure described above. Children received delta-8-THC only during days when emetogenic drugs were administered.
Established anticancer drug protocols were followed with all patients.
(§2) A study on vomiting due to antineoplastic therapy was carried out with 8 patients. Chemotherapy protocols of the types indicated in the Table almost invariable cause intense vomiting, which starts about 2 hrs after the initiation of chemotherapy and gradually ends over a 24 hr period. In preliminary trials we tried to end the antiemetic therapy after the first or second dose of the cannabinoid, i.e. after 6 or 12 hrs. […] In one case (patient) delta-8-THC therapy initially was refused. The patient experienced debilitating vomiting for 24 hrs after the antineoplastic treatment. During the second treatment cycle (which took place after 8 days), at the patient's family request, delta-8-THC treatment was initiated.
Our antiemetic protocol for cancer patients, to which we strictly adhere, consists of one dose of delta-8-THC (18 mg/m^2) 2 hours before chemotherapy, followed by the same dose every 6 hours for a total of 4 doses per day.

[6] = Stability towards chemicals and oxidation, compared with delta-9-THC; format: physicochemical; details: compared with delta-9 isomer
[7] = test system: vomiting and nausea in cancer therapy; experiment: Comparison of delta-8-THC with delta-9-THC for antiemetic use (effectiveness, side effects); format: in vivo, human; details: compared with delta-9-THC
[8] = test system: vomiting due to antineoplastic therapy; experiment: Preliminary trials ending the antiemetic therapy after first or second dose; format: in vivo, human; details: therapy ended after first or second dose, i.e. after 6 or 12 hrs
Method: as §2

[9] = chemotherapy of cancer, treated patients

CCCCCc1cc(O)c2c(c1)OC(C)(C)[C@@H]1CCC(C)=C[C@@H]21 [delta-9-THC, delta-9-tetrahydro-cannabinol, reference compound]
LD50 at 168 h [1]: 1910 mg/kg
Histopathological changes (Fischer rats): essentially the same
LD50 ([2]; dog, dogs): > 9000 mg/kg
LD50 ([2]; rhesus monkey, rhesus monkeys): > 9000 mg/kg
Histopathological alterations (dogs): did not occur
Histopathological alterations (rhesus monkeys): did not occur
Effect in the remaining patients ([3]; chemotherapy of cancer, the rest of treated patients): little or no effect
Patients in whom vomiting and nausea is prevented [3, 9]: 20 to 30 per cent
Patients in whom vomiting and nausea symptoms are reduced [3, 9]: 40 to 50 per cent
Pronounced side effects ([3]; treated patients, pronounced with elderly patients): drowsiness, dizziness and in some cases--anxiety
Side effects in younger patients ([3]; younger patients): mainly mood changes

CCN(CC)CCNC(=O)c1cc(Cl)c(N)cc1OC [Metoclopromide]
Prevention of vomiting [4]: failed to

CCCCCc1cc(O)c2c(c1)OC(C)(C)[C@@H]1CC=C(C)C[C@@H]21 [delta-8-THC]
Prevention of vomiting ([5]; 8 children, 18 mg/m^2 p.o. in edible oil 2 h before antineoplastic drug, repeated every 6 h for 24 h): completely prevented; also recorded: no emesis was noted; also recorded: prevention of vomiting was complete
Effect of antiemetic treatments: side effects per patient ([5]; Table, individual child, 18 mg/m^2): no side effects; also recorded: slight irritability; also recorded: euphoria
Anxiety or hallucinogenic effects ([5]; children, 18 mg/m^2 p.o.): No anxiety or hallucinogenic effects were noted
Side effects (overall) ([5]; children, 18 mg/m^2 p.o., every 6 h for 24 h): negligible side effects; also recorded: minor: some irritability as slight euphoria; also recorded: without the occurrence of major side effects
Vomiting in patient, second treatment cycle ([5]; delta-8-THC initiated at second cycle after refusal in first cycle, 18 mg/m^2 p.o.): No vomiting occurred
LD50 at 168 h [1]: 1980 mg/kg
Histopathological changes (Fischer rats): essentially the same
LD50 ([2]; dog, dogs): > 9000 mg/kg
LD50 ([2]; rhesus monkey, rhesus monkeys): > 9000 mg/kg
Histopathological alterations (dogs): did not occur
Histopathological alterations (rhesus monkeys): did not occur
Proneness to oxidation [6]: less prone to oxidation
Stability towards various chemicals [6]: considerably more stable
Effectiveness for the intended (antiemetic) use [7]: at least as effective
Side-effects ([7]; especially in pediatric medicine): considerably reduced side-effects
Vomiting after ending antiemetic therapy early [8]: Vomiting started in most cases
